Assay [1] deals with T1, CMKLR1 (Homo sapiens, UniProt Q99788).
T1 sequence (Q99788 1-373): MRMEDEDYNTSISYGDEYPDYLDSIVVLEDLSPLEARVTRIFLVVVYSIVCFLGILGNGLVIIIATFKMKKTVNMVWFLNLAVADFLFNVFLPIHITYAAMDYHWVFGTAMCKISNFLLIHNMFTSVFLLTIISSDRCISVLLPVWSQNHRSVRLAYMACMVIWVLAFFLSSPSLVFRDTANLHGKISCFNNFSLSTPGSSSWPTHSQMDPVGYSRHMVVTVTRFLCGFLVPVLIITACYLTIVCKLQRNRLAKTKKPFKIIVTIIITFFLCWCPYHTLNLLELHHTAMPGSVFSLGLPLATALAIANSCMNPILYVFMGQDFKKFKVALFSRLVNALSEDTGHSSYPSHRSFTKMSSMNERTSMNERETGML
In words: Ca2+ mobilization assay (G protein-mediated signaling). A general note: Calcium flux is commonly read through the fluorescence of an indicator in the cells.

The target of assay [2] is T1, CMKLR1. The assay is described as follows: BRET-based arrestin 3 recruitment assay. Conditions: for arrestin 3 recruitment to the CMKLR1 (in words): BRET, compared with chemerin-9; for Emax: read-out: Emax [%] ± SEM.
The mark [3] stands for this setting: COS-7 cells transfected with hCMKLR1_eYFP_GαΔ6qi4myr, normalized to chemerin-9.

As a reminder, the Emax is the size of the effect at its maximum, as opposed to the concentration needed. One may read the EC50 as the concentration needed to bring the measured effect to its halfway point.

Entries after “also recorded” stand apart in the source; their conditions may differ. *1 amine or outer side, *2 acyl side, *3 side chain or, on linkers, in order; H or OH if unused. Where a SMILES comes first, the peptide text is derived from it. Bridges are numbered along the chain shown (N, C = ends). [ ]: non-standard residue; d: D form. PEG4 = NCCOCCOCCOCCOCCC(=O)O; d(hCys) = N[C@H](CCS)C(=O)O; hCys = N[C@@H](CCS)C(=O)O; CH2 = C([*:1])[*:2]

On to `C[C@@H]1NC(=O)[C@H](Cc2ccccc2)NC(=O)[C@H](CCC(N)=O)NC(=O)[C@H](NC(=O)[C@@H]2CCCN2C(=O)[C@H](Cc2ccccc2)NC(=O)[C@H](N)Cc2ccc(O)cc2)CSCSCC[C@@H](C(=O)O)NC(=O)[C@H](Cc2ccccc2)NC1=O` [$$ 11, [y1,c4,X9-TA]-chemerin-9] (H-[dY]FP[dC]QFAF[hCys]-OH; linker 4-9 via CH2), for which the “pEC50 ± SEM” value on CMKLR1 [1] (setting [3]) turned out to be 7.553 ± 0.067.

Turning to `C[C@@H]1NC(=O)[C@H](Cc2ccccc2)NC(=O)[C@H](CCC(N)=O)NC(=O)[C@H](NC(=O)[C@@H]2CCCN2C(=O)[C@H](Cc2ccccc2)NC(=O)[C@H](Cc2ccc(O)cc2)NC(=O)CCOCCOCCOCCOCCN)CCSSC[C@@H](C(=O)O)NC(=O)[C@H](Cc2ccccc2)NC1=O` [$$ 16, EG4-[x4,C9]-chemerin-9] (H-[PEG4]YFP[d(hCys)]QFAFC-OH; disulfide 5-10), on CMKLR1 [2], the “arrestin 3 recruitment to the CMKLR1 (in words)” value is listed as “accepted; also recorded: no impact” and the Emax amounted to 102 ± 5%.

In the case of `C[C@@H]1NC(=O)[C@H](Cc2ccccc2)NC(=O)[C@H](CCC(N)=O)NC(=O)[C@H](NC(=O)[C@@H]2CCCN2C(=O)[C@H](Cc2ccccc2)NC(=O)[C@@H](N)Cc2ccc(O)cc2)CCSSC[C@@H](C(=O)O)NC(=O)[C@H](Cc2ccccc2)NC1=O` [$$ 13, [x4,C9]-chemerin-9] (H-YFP[d(hCys)]QFAFC-OH; disulfide 4-9), at CMKLR1 [2], the “arrestin 3 recruitment to the CMKLR1 (in words)” value was “only slightly shifted EC50 and Emax values; also recorded: slight loss of activity”; the maximal response (Emax) stood at 86.8 ± 4%.

In the case of `CC(=O)NCC(=O)N[C@@H](Cc1ccccc1)C(=O)N[C@@H](CC(C)C)C(=O)NCC(=O)N[C@@H](Cc1ccc(O)cc1)C(=O)N[C@@H](Cc1ccccc1)C(=O)N1CCC[C@H]1C(=O)N[C@@H]1CCSSC[C@@H](C(=O)O)NC(=O)[C@H](Cc2ccccc2)NC(=O)[C@H](C)NC(=O)[C@H](Cc2ccccc2)NC(=O)[C@H](CCC(N)=O)NC1=O` [$$ 20, GFLG-[x4,C9]-chemerin-9] (Ac-GFLGYFP[d(hCys)]QFAFC-OH; disulfide 8-13), the EC50 is 100 nM at CMKLR1 [2] (EC50, HEK293 cells, CMKLR1-eYFP and Rluc8-arrestin 3, 15 min after agonist addition); 21.1 nM on CMKLR1 [1]. The Emax at CMKLR1 [2] was determined as 89 ± 5%.

Take `NC(=O)CC[C@@H]1NC(=O)[C@H](NC(=O)[C@@H]2CCCN2C(=O)[C@H](Cc2ccccc2)NC(=O)[C@@H](N)Cc2ccc(O)cc2)CSSC[C@@H](C(=O)N[C@@H](Cc2ccccc2)C(=O)N[C@@H](CO)C(=O)O)NC(=O)[C@H](Cc2ccccc2)NC1=O` [$$ 6, [c4,C7]-chemerin-9, reference compound] (H-YFP[dC]QFCFS-OH; disulfide 4-7): the concentration for a half-maximal effect (EC50) on CMKLR1 [1] is 62.5 nM.

With `C[C@@H]1NC(=O)[C@H](Cc2ccccc2)NC(=O)[C@H](CCC(N)=O)NC(=O)[C@H](NC(=O)[C@@H]2CCCN2C(=O)[C@H](Cc2ccccc2)NC(=O)[C@@H](N)Cc2ccc(O)cc2)CSCSC[C@@H](C(=O)O)NC(=O)[C@H](Cc2ccccc2)NC1=O` [$$ 7, [c4,C9-TA]-chemerin-9] (H-YFP[dC]QFAFC-OH; linker 4-9 via CH2), the “pEC50 ± SEM” value on CMKLR1 [1] (setting [3]) amounted to 7.888 ± 0.130.

Turning to `C[C@@H]1NC(=O)[C@H](Cc2ccccc2)NC(=O)[C@H](CCC(N)=O)NC(=O)[C@H](NC(=O)[C@@H]2CCCN2C(=O)[C@H](Cc2ccccc2)NC(=O)[C@@H](N)Cc2ccc(O)cc2)CSSC[C@@H](C(=O)O)NC(=O)[C@H](Cc2ccccc2)NC1=O` [$$ 4, [c4,C9]-chemerin-9, reference compound] (H-YFP[dC]QFAFC-OH; disulfide 4-9), on CMKLR1 [1] (setting [3]), a half-maximal response (EC50) required 64 nM and the “pEC50 ± SEM” value stood at 7.192 ± 0.147.

The values above are taken from patent US20230303647A1, “CYCLIC CHEMERIN-9 DERIVATIVES” (priority 2020, published 2023).
